Assay results: ChEMBL document CHEMBL3351982, “Microwave-assisted synthesis and biological evaluation of 3,4-diaryl maleic anhydride/N-substituted maleimide derivatives as combretastatin A-4 analogues” (Bioorg Med Chem Lett, 2015)

Experiments:
[1] = Cytotoxicity against human HT1080 cells assessed as cell growth inhibition after 72 hrs by MTT assay; format: functional, cell-based; conditions: HT-1080, 72 h
KB = assay: Cytotoxicity against human KB cells assessed as cell growth inhibition after 72 hrs by MTT assay; format: functional, cell-based
[2] = Cytotoxicity against human SGC7901 cells assessed as cell growth inhibition after 72 hrs by MTT assay; format: functional, cell-based; conditions: SGC-7901, 72 h
Tubulin (Bos taurus) = Tubulin (Bos taurus) (UniProt Q6B856+Q862L2+Q862F3); assay: (§1) Inhibition of bovine brain tubulin polymerization
Tubulin = Tubulin (Bos taurus, UniProt Q6B856+Q862L2+Q862F3); assay: as §1

inhibition (Tubulin (Bos taurus))	IC50 (Tubulin) [µM]	SMILES	IC50 [1] [µM]	IC50 (KB) [µM]	IC50 [2] [µM]
		COc1ccc(C2=C(c3cc(OC)c(OC)c(OC)c3)C(=O)N(OC)C2=O)cc1	> 30	> 30	> 30
		COc1ccc(C2=C(c3cc(OC)c(OC)c(OC)c3)C(=O)N(C)C2=O)cc1N	0.75	1.3	1.5
		COc1ccc(C2=C(c3cc(OC)c(OC)c(OC)c3)C(=O)N(O)C2=O)cc1O	2.4	6.7	4.5
		COc1cc(C2=C(c3ccc4ccccc4c3)C(=O)N(O)C2=O)cc(OC)c1OC	6.4	10.1	16.5
Dose-dependent effect	3	COc1ccc(C2=C(c3cc(OC)c(OC)c(OC)c3)C(=O)N(O)C2=O)cc1N	0.65	1.1	1.3
		COc1ccc(C2=C(c3cc(OC)c(OC)c(OC)c3)C(=O)N(O)C2=O)cc1	4.1	5.6	5.3
		COc1cc(C2=C(c3ccc4ccccc4c3)C(=O)OC2=O)cc(OC)c1OC	> 30	> 30	> 30
		COc1ccc(C2=C(c3cc(OC)c(OC)c(OC)c3)C(=O)N(C)C2=O)cc1O	13.3	3	2.5
		COc1ccc(C2=C(c3cc(OC)c(OC)c(OC)c3)C(=O)N(OC)C2=O)cc1N	> 30	> 30	> 30
		COc1ccc(/C=C\c2cc(OC)c(OC)c(OC)c2)cc1O [COMBRETASTATIN A4]	0.008		0.028
		COc1cc(C2=C(c3ccc4ccccc4c3)C(=O)N(C)C2=O)cc(OC)c1OC	22.5	16.7	12.3
		COc1ccc(C2=C(c3cc(OC)c(OC)c(OC)c3)C(=O)OC2=O)cc1O	> 30	> 30	27.9
		COc1ccc(C2=C(c3cc(OC)c(OC)c(OC)c3)C(=O)OC2=O)cc1N	2.4	2.3	1.6
		COc1ccc(C2=C(c3cc(OC)c(OC)c(OC)c3)C(=O)OC2=O)cc1	16.5	10.8	13.2
		COc1ccc(C2=C(c3cc(OC)c(OC)c(OC)c3)C(=O)N(C)C2=O)cc1	15.6	14.2	12.3
		COc1cc(C2=C(c3ccc4ccccc4c3)C(=O)N(OC)C2=O)cc(OC)c1OC	> 30	> 30	> 30
		COc1ccc(C2=C(c3cc(OC)c(OC)c(OC)c3)C(=O)N(OC)C2=O)cc1O	> 30	> 30	> 30
